Data reported in patent EP4806904A1, “POLYPEPTIDE AND USE THEREOF” (Sichuan Gooddoctor Panxi Pharmaceutical Co. Ltd, priority 2023, dated 2026).
Where a SMILES comes first, the peptide text is derived from it. [ ]: non-standard residue; d: D form.

Columns and labels:
[1] = tested on: Brain microvascular endothelial cells (BMECs) and brain microvascular smooth muscle cells (BMVSMCs); assay: In vitro angiogenesis assay, BMEC/BMVSMC co-culture on matrigel; format: cell-based, mouse; conditions: 0.1 mg/L, 48 h
Protocol: First, mouse brain microvascular pellets were obtained by differential centrifugation. Brain microvascular endothelial cells (BMECs) and brain microvascular smooth muscle cells (BMVSMCs) were isolated by digestion with collagenase II, respectively, and cultured in a cell incubator with 5% CO2 at 37°C . Cells at passages 3-6 in good growth condition and logarithmic growth phase were selected for the in vitro angiogenesis assay.
One night before the experiment, the high-concentration matrigel was transferred from a -20°C or -80°C refrigerator to a 4°C refrigerator and allowed to thaw slowly overnight in the 4°C refrigerator. Pipette tips required for the formal experiment were sterilized in advance and pre-cooled in a 4°C refrigerator for subsequent use.
On the day of the experiment, the matrigel was added to a 96-well plate 1 h in advance and placed in a 37°C cell incubator until it solidified. Subsequently, the cells were washed 2 times with 2 mL of PBS buffer, followed by digestion with 0.25% trypsin to obtain EC and VSMC pellets, respectively, and cell counting was performed. A uniform cell suspension containing 5×10^3 BMVSMCs and 1×10^3 BMECs per well was then seeded into the 96-well plate pre-coated with the matrigel, and cultured in a 37°C, 5% CO2 cell incubator for 3 days.
During the culture period, tube formation was observed daily. The medium was changed on day 4, followed by treatment with the polypeptide of the invention at 0.1 mg/L or VEGFA at 10/15/20 ng/L for 48 h, respectively.
On day 5, the cell nuclei and live cells were labeled with Hoechst 33342 and Calcein AM, respectively. High-content brightfield and fluorescence imaging were then performed using a high-content screening system. Finally, angiogenesis in each treatment group was analyzed using the Angiogenesis Analyzer plugin for ImageJ, and statistical analysis was carried out with GraphPad Prism 10.

[2] = tested on: primary neural stem cells (NSCs); assay: Differentiation of primary neural stem cells, βIII-tubulin fluorescence and Neurite Outgrowth Assay; format: cell-based, SD rats; conditions: 100 µg/mL; for Longest neurite length / Neurite initiation points (branches) / Number of neurite terminals / Total neurite length / mean fluorescence intensity of the neuronal marker protein βIII-tubulin / neurite outgrowth (total neurite length, maximum neurite length, neurite terminals, neurite initiation points) / Average fluorescence intensity: 4 days; for Longest neurite length / Neurite initiation points (branches) / Number of neurite terminals / Total neurite length / Average fluorescence intensity: significance vs blank control group; for mean fluorescence intensity of the neuronal marker protein βIII-tubulin: vs blank control group; for mean fluorescence intensity of the neuronal marker protein βIII-tubulin / neurite outgrowth (total neurite length, maximum neurite length, neurite terminals, neurite initiation points): in words; for neurite outgrowth (total neurite length, maximum neurite length, neurite terminals, neurite initiation points): Neurite Outgrowth Assay; for differentiation of NSCs into neuronal cells: conclusion based on the results of the two analytical methods; for Average fluorescence intensity: βIII-tubulin
Protocol: This part of the experiment requires feeding male and female rats in advance, then extracting hippocampal neural stem cells from newborn SD rats within 24 h of birth, culturing them to P3 for identification, and then using them for experiments. • (1) Extraction and culture of primary neural stem cells (NSCs) • (2) NSCs that have been passaged to P3 and have good viability were seeded in differentiation medium (2% FBS+DMEM/F12 1:1 medium) in 48-well plates with a cell concentration of 5×10^4 cells/mL per well. After overnight culture for cell adherence, the cells were treated with drugs; • (3) Drug treatment was applied. The final concentration of the polypeptide of the invention was 100 µg/mL. Meanwhile, nerve growth factor (NGF, 50 ng/mL) was set as the positive control, and the cells were cultured in the incubator for another 4 days; • (4) Immunofluorescence staining (primary antibody βIII-tubulin) was performed after 4 days of treatment. The average fluorescence intensity of βIII-tubulin was analyzed and the Neurite Outgrowth Assay was performed using a high-content cell imaging analysis system.

[3] = significance vs blank control group

Row | Molecule | Branch length [1, 3] | Cell count [1, 3] | Number of intersections [1, 3] | angiogenesis-promoting effects ([1]; vs normal group, in words) | Longest neurite length [2] | Neurite initiation points (branches) [2] | Number of neurite terminals [2] | Total neurite length [2] | mean fluorescence intensity of the neuronal marker protein βIII-tubulin [2] | neurite outgrowth (total neurite length, maximum neurite length, neurite terminals, neurite initiation points) [2] | other results
1 | CC(C)C[C@H](NC(=O)[C@@H](NC(=O)CNC(=O)[C@@H]1CCCN1C(=O)[C@H](C)NC(=O)[C@@H]1CCCN1C(=O)[C@H](CC(C)C)NC(=O)[C@@H](C)N)[C@@H](C)O)C(=O)O [Compound 2, H-D-Ala-Leu-Pro-Ala-Pro-Gly-Thr-Leu-OH] (H-[dA]LPAPGTL-OH) | *** (***p < 0.001) | * (*p < 0.05) | ** (**p < 0.01) | exhibited angiogenesis-promoting effects | ** (**p < 0.01) | * (*p < 0.05) | ** (**p < 0.01) | ** (**p < 0.01) | – | – | –
2 | CC(C)C[C@H](NC(=O)[C@@H](NC(=O)CNC(=O)[C@@H]1CCCN1C(=O)[C@H](C)NC(=O)[C@H]1CCCN1C(=O)[C@H](CC(C)C)NC(=O)[C@H](C)N)[C@@H](C)O)C(=O)O [Compound 4, H-Ala-Leu-D-Pro-Ala-Pro-Gly-Thr-Leu-OH] (H-AL[dP]APGTL-OH) | – | * (*p < 0.05) | – | – | *** (***p < 0.001) | ** (**p < 0.01) | ** (**p < 0.01) | ** (**p < 0.01) | – | – | cell proliferation ([1]; vs normal group, in words): only promoted cell proliferation
3 | CC(C)C[C@H](N)C(=O)N1CCC[C@H]1C(=O)N[C@@H](C)C(=O)N1CCC[C@H]1C(=O)O [Compound 31, H-Leu-Pro-Ala-Pro-OH] (H-LPAP-OH) | ** (**p < 0.01) | – | – | – | – | – | – | – | tendency to enhance | – | –
4 | CC(C)C[C@H](NC(=O)[C@H](C)N)C(=O)N1CCC[C@H]1C(=O)N[C@@H](C)C(=O)O [Compound 35, H-Ala-Leu-Pro-Ala-OH] (H-ALPA-OH) | – | ** (**p < 0.01) | – | – | ** (**p < 0.01) | * (*p < 0.05) | * (*p < 0.05) | * (*p < 0.05) | significant increase | promote neurite outgrowth | cell proliferation ([1]; vs normal group, in words): only promoted cell proliferation; differentiation of NSCs into neuronal cells [2]: promote the differentiation of NSCs into neuronal cells with stable effects; Average fluorescence intensity [2]: * (*p < 0.05)
5 | CC(C)C[C@H](NC(=O)[C@@H](NC(=O)CN)[C@@H](C)O)C(=O)O [Compound 38, H-Gly-Thr-Leu-OH] (H-Gly-Thr-Leu-OH) | ** (**p < 0.01) | * (*p < 0.05) | ** (**p < 0.01) | exhibited angiogenesis-promoting effects | – | – | – | – | tendency to enhance | – | –
6 | CC(=O)N[C@@H](C)C(=O)N[C@@H](CC(C)C)C(=O)N1CCC[C@H]1C(=O)N[C@@H](C)C(=O)N1CCC[C@@H]1C(=O)NCC(=O)N[C@H](C(=O)N[C@@H](CC(C)C)C(N)=O)[C@@H](C)O [Compound 41, Ac-Ala-Leu-Pro-Ala-D-Pro-Gly-Thr-Leu-NH2] (Ac-ALPA[dP]GTL-NH2) | ** (**p < 0.01) | *** (***p < 0.001) | ** (**p < 0.01) | exhibited angiogenesis-promoting effects | – | * (*p < 0.05) | – | * (*p < 0.05) | – | tendency to promote neurite outgrowth | –
7 | CC(=O)N[C@@H](C)C(=O)N[C@@H](CC(C)C)C(=O)N1CCC[C@H]1C(=O)N[C@H](C)C(=O)N1CCC[C@H]1C(=O)NCC(=O)N[C@H](C(=O)N[C@@H](CC(C)C)C(N)=O)[C@@H](C)O [Compound 42, Ac-Ala-Leu-Pro-D-Ala-Pro-Gly-Thr-Leu-NH2] (Ac-ALP[dA]PGTL-NH2) | * (*p < 0.05) | * (*p < 0.05) | – | – | – | – | – | – | significant increase | – | Branch length ([1]; vs normal group, in words): promoting effects; number of junctions ([1]; vs normal group, in words): no significant effects; Average fluorescence intensity [2]: * (*p < 0.05)
8 | Ac-ALPAPGTL-OH [Compound 9, Ac-Ala-Leu-Pro-Ala-Pro-Gly-Thr-Leu-OH] | * (*p < 0.05) | – | – | – | – | – | – | – | – | – | Branch length ([1]; vs normal group, in words): promoting effects; number of junctions ([1]; vs normal group, in words): no significant effects
9 | H-AKNQLPAPGTLQHFC-OH [Compound 24, H-Ala-Lys-Asn-Gln-Leu-Pro-Ala-Pro-Gly-Thr-Leu-Gln-His-Phe-Cys-OH] | – | – | – | – | – | * (*p < 0.05) | – | – | significant increase | – | Average fluorescence intensity [2]: * (*p < 0.05)
10 | H-ALGAPGTL-OH [Compound 14, H-Ala-Leu-Gly-Ala-Pro-Gly-Thr-Leu-OH] | – | * (*p < 0.05) | * (*p < 0.05) | – | – | – | – | – | – | – | Branch length ([1]; vs normal group, in words): no significant effects; number of junctions ([1]; vs normal group, in words): promoting effects
11 | H-ALPAP-OH [Compound 30, H-Ala-Leu-Pro-Ala-Pro-OH] | * (*p < 0.05) | ** (**p < 0.01) | – | – | * (*p < 0.05) | – | – | – | significant increase | tendency to promote neurite outgrowth | Average fluorescence intensity [2]: *** (***p < 0.001)
12 | H-ALPAPGT-OH [Compound 39, H-Ala-Leu-Pro-Ala-Pro-Gly-Thr-OH] | ** (**p < 0.01) | * (*p < 0.05) | ** (**p < 0.01) | exhibited angiogenesis-promoting effects | – | – | – | – | – | – | –
13 | H-APGTL-OH [Compound 34, H-Ala-Pro-Gly-Thr-Leu-OH] | ** (**p < 0.01) | ** (**p < 0.01) | ** (**p < 0.01) | exhibited angiogenesis-promoting effects | * (*p < 0.05) | * (*p < 0.05) | ** (**p < 0.01) | * (*p < 0.05) | significant increase | promote neurite outgrowth | differentiation of NSCs into neuronal cells [2]: promote the differentiation of NSCs into neuronal cells with stable effects; Average fluorescence intensity [2]: * (*p < 0.05)
14 | H-LPAPG-OH [Compound 33, H-Leu-Pro-Ala-Pro-Gly-OH] | ** (**p < 0.01) | ** (**p < 0.01) | ** (**p < 0.01) | exhibited angiogenesis-promoting effects | – | – | – | – | – | – | –
15 | H-LPAPGTL-OH [Compound 29, H-Leu-Pro-Ala-Pro-Gly-Thr-Leu-OH] | – | – | – | – | – | – | – | – | tendency to enhance | – | –
16 | H-PAPGT-OH [Compound 27, H-Pro-Ala-Pro-Gly-Thr-OH] | – | – | – | – | ** (**p < 0.01) | ** (**p < 0.01) | * (*p < 0.05) | * (*p < 0.05) | – | promote neurite outgrowth | –
17 | H-PAPGTL-OH [Compound 26, H-Pro-Ala-Pro-Gly-Thr-Leu-OH] | * (*p < 0.05) | – | * (*p < 0.05) | exhibited angiogenesis-promoting effects | – | – | – | – | tendency to enhance | – | –
18 | H-PIASQHLNLAPAPGTI-OH [Compound 23, H-Pro-Ile-Ala-Ser-Gln-His-Leu-Asn-Leu-Ala-Pro-Ala-Pro-Gly-Thr-Ile-OH] | – | – | – | – | – | – | * (*p < 0.05) | * (*p < 0.05) | tendency to enhance | tendency to promote neurite outgrowth | –
